Consider 63 compounds from a melting point compilation (Tetko et al.; mined from patent text by program, amines drawn as free bases though some values may be those of a salt).

The structures appear in SMILES notation.

On to `CCCCCNC(=O)Nc1ccccc1C(=O)NC1CCN(C(c2ccccc2)c2ccccc2)CC1`, for which the melting point (as a rule, the temperature, or range, at which the solid turns liquid) was 199 to 201 °C.
The value for `C#CCN(Cc1cc2c(=O)[nH]c(CO)nc2cc1Cl)c1ccc(C(=O)OC(C)(C)C)cc1` was 185 to 187 °C; that for `CC(C)(O)c1ccc(C(=O)Nc2cn3cc(-n4ccnc4)ccc3n2)cc1` was 281 to 282 °C; that for `CCNC(=O)c1c(OC(C)(C)C)ccc2ccccc12` was 126 to 127 °C.
The value for `CN1C(=O)C(CN2CCCCC2)CC1C1CC1c1ccccc1Cl` (stereo not drawn) was 87 to 90 °C.
The value for `NCc1ccc2ccnc(N)c2c1` was 114 to 117 °C.
Compound `N[C@@H](Cc1ccc(O)cc1)[C@H](O)C(F)(F)F` came in with a melting point of 172 to 174 °C.
The value for `COc1cc(OC)c(-c2cc3ccccc3s2)cc1/C=C/C(=O)c1ccc(C(=O)NC(=O)C(C)C)cc1` was 208 to 209 °C; that for `Nc1cc2c(c(C(=O)O)c1)NCCC2` was 207 to 208 °C.
As to `CCc1cn(C2CC(O)C(CNC(=O)Cc3ccccc3NC(C)=O)O2)c(=O)[nH]c1=O` (stereo not drawn), the melting point was 266 to 267 °C.
For `NC(=O)c1cn([C@@H](CO)CCn2ccc3ccccc32)cn1`, the melting point was 127 to 130 °C.
Take `CC(C)n1nc(-c2c(-c3ccccc3)nc(N)nc2N2CCOCC2)ccc1=O`: the melting point lay within 251 to 253 °C.
The value for `Nc1cccc(Oc2cccc(Oc3cccc(N)c3)n2)c1` was 118 to 120 °C; that for `CS(=O)(=O)c1ccc(COc2cccc(C(=O)Nc3ccc(C#N)cc3)c2)cc1` was 209 to 210 °C.
As for `CCCn1c(=O)cc(N)n(Cc2ccccc2)c1=O`, the figure is 189 to 192 °C.
As for `Cc1cnc(NC(=O)C2=C(O)c3ccc(F)cc3S(=O)(=O)N2C)s1`, the figure is 233 °C; as for `COc1ccc(Cn2ncc3c4c(cnc32)CN(S(=O)(=O)c2ccccc2)CC4)cc1`, 136 to 138 °C; as for `OCCCN1CCN(C(c2ccccc2)c2ccccc2)CC1`, 126 to 128 °C.
`O=c1c2c(oc3ccccc13)C=C2`: the melting point is 68 to 70 °C.
As for `CC(C)(C)C(=O)ON1C(C)(C)CC(OC(=O)CCCCCCCCC(=O)OC2CC(C)(C)N(OC(=O)C(C)(C)C)C(C)(C)C2)CC1(C)C`, the figure is 93 to 97 °C; as for `CC(C)OC(=O)NCc1cccc(-c2ccccc2)c1`, 61 to 64 °C; as for `CCOC(=O)C1=C(COCC#CC(=O)O)NC(C)=C(C(=O)OC)C1c1cccc(Cl)c1Cl` (stereo not drawn), 100 °C.
As for `O=C1c2ccccc2COc2ccc(CCN3CCC(n4c(=O)[nH]c5ccccc54)CC3)cc21`, the figure is 116 to 120 °C; as for `CCC(=O)N1CC(=O)C2=C(C1)CN1NC(N3CCOCC3)=NC1=N2`, 278 to 280 °C.
The value for `CC(C)Cc1cccc(CCCn2c(=O)c3c(N4CCN(C)CC4)cc(Cl)cc3n(Cc3ccccc3)c2=O)c1` was 56 to 62 °C.
As for `COCCOc1cc2ncnc(NC3=CC(=O)C(N(C)C4CCCCC4)=CC3=O)c2cc1OC`, the melting point lay within 178 to 180 °C.
As for `O=C(NCCn1cc(Cn2ccnc2)c2ccccc21)Nc1ccccc1`, the figure is 198 to 199 °C.
The value for `CCOCc1nc2c(N)nc3cc(OCCCc4cccnc4)ccc3c2n1CC(C)(C)O` was 160 to 161 °C; that for `CC(C)(C)NC(=O)[C@@H]1CSCN1C(=O)OCc1ccccc1` was 96 to 98 °C; that for `CCOP(=O)(OCC)C(CC(C(=O)Nc1ccccn1)C(=O)c1ccccc1)P(=O)(OCC)OCC` (stereo not drawn) was 104 to 105 °C.
The compound `COc1ccc(S(=O)(=O)N2C(=O)C(N)(c3ccccc3)c3cc(Cl)ccc32)c(OC)c1` (stereo not drawn) gave a melting point of 108 to 110 °C.
In turn, `COc1ccc(-c2nc(-c3ccccc3)no2)cc1` showed a melting point of 97 to 98 °C.
On to `CCC(C)(C)c1c[nH]cn1`, for which the melting point was in the range of 95 to 96 °C.
The value for `CCCCCCCCCCCCCCCCCNC(=O)Oc1cccc([N+](=O)[O-])c1` was 66 to 73 °C; that for `CON=C(Cl)c1ccccc1S(N)(=O)=O` was 155 to 158 °C.
The value for `O=c1oc(-c2ccc(OCc3ccccc3)cc2)cc(O)c1SCCc1ccccc1` was 139 to 142 °C; that for `O=C(O)C(c1ccc(Cl)cc1)c1ccc(-n2ncc(=O)[nH]c2=O)cc1Cl` (stereo not drawn) was 196 °C.
The value for `CN(C)C1(c2ccccc2)CCC(c2[nH]c3ccccc3c2C2CC2)CC1` (stereo not drawn) was 238 to 245 °C; that for `CC(=O)Nc1ccc(-c2cc(C(=O)c3ccncc3)sc2N2CCOCC2)cc1` was 149 °C; that for `Cc1ccc(NC(=O)C(C)(C)C)c(-c2ccnc(OCC(F)(F)F)n2)c1` was 126 to 128 °C.
Regarding `COc1cc(C=CC(=O)c2ccc(O)c(CC(=O)O)c2)cc(OC)c1OC`, the melting point is 210 °C.
The value for `CC1(C)c2cc(OS(C)(=O)=O)ccc2OC1O` (stereo not drawn) was 69 to 72 °C; that for `O=C1NC(=O)c2c1cc1ccc3c(c1c2-c1ccc(F)cc1)OCC3` was above 310 °C; that for `CC(ON1C(C)(C)CNC(=O)CC1(C)C)c1ccccc1` (stereo not drawn) was 125 to 127 °C.
`Cc1nc(N)nc(N)c1C=CC(C)c1ccc(Cl)cc1` (stereo not drawn) came in with a melting point of 158 to 165 °C.
In turn, `O=C1NC(=O)C(c2ccco2)N1` (stereo not drawn) showed a melting point of 145 to 146 °C.
Compound `O=C(Nc1cccnc1)c1cccc(-c2cccc3oc(Cc4cccc(C(F)(F)F)c4)cc23)c1` yielded a melting point of 127 to 128 °C.
Consider `COc1ccc(C2(c3ccc(N(C)C)cc3)OC(=O)c3cc(N(C)C)ccc32)cc1` (stereo not drawn), for which the melting point lay within 156 to 161 °C.
The value for `CC(=O)N[C@H]1C(O)O[C@H](CO)[C@@H](F)[C@@H]1O` (stereo partly drawn) was 180 °C; that for `NCc1ccc(S(=O)(=O)c2ccc(S(N)(=O)=O)s2)cc1` was 225 to 228 °C.
The value for `Cc1cc(OCCC#Cc2ccc(OC(F)(F)F)cc2)ccc1OC(C)(C)C(=O)O` was 62 to 71 °C; that for `CCOC(=O)/C=C/c1cc(-c2ccccc2)nn1Cc1ccc(Cl)cc1Cl` was 123 to 124 °C; that for `CC1(C)CCc2ccc(O)cc21` was 84.5 to 86.5 °C.
As for `C=C(C#N)C(=O)OCC(C)(C)C`, the figure is 40 to 41 °C; as for `Cc1ncc(-c2ccc([C@H](C)N3CC[C@](CCCO)(c4ccc(F)cc4)OC3=O)cc2)cn1`, 166 to 168 °C; as for `CCCN(C)c1nc(N)nc2c1ncn2C1CC(F)C(CO)O1` (stereo not drawn), 80 to 84 °C.
`COc1ccc2cc(CO)ccc2c1Br` gave a melting point of 85 to 87 °C.
The value for `COc1cc(NC(=O)c2ccco2)ccc1S(=O)(=O)N1C(=O)C(c2ccccc2Cl)(N(C)C)c2cc(Cl)ccc21` (stereo not drawn) was 255 °C.
As for `O=[N+]([O-])c1cnc2ccc(F)cc2c1O`, the figure is 313 °C; as for `CC(=O)NC1=NN(c2ccc(C(=O)C(F)(F)F)cc2)CC1`, 243 to 244 °C; as for `CCOC(=O)c1ccc(SC)cn1`, 44 to 46 °C.
`Cc1ccn(-c2ccc(S(C)(=O)=O)cc2)c1-c1ccc(F)cc1` had a melting point of 157 to 158 °C.
As for `O=C(Nc1ccc(C(F)(F)F)cc1)c1ccccc1SSc1ccccc1C(=O)Nc1ccc(C(F)(F)F)cc1`, the figure is 272 to 275 °C.
